Counter-ions that a name gives are not always drawn.
Legend:
[1] = Selectivity index, ratio of CC50 for human MT-4 cells to EC50 for HIV-1 infected in MT-4 cells; assay type: toxicity, cell-based; settings: read-out: Ratio CC50/EC50
[2] = test system: Human immunodeficiency virus 1; assay: Antiviral activity against HIV-1; assay type: functional, organism-based
[3] = Solubility of compound in water at 25 uM after 24 hrs by HPLC analysis; assay type: physicochemical
[4] = test system: Human immunodeficiency virus 1; assay: Antiviral activity against HIV-1 infected in MT4 cells assessed as reduction in virus-induced cytopathic effect preincubated for 1 hr followed by viral infection and measured after 5 days by XTT assay; assay type: functional, organism-based; settings: Human immunodeficiency virus 1, MT4
[5] = Cytotoxicity against in human MT4 cells after 5 days by XTT assay; assay type: cell-based; settings: time 5 day
Hepatitis B virus = assay: Antiviral activity against HBV infected in human HepG2-hNTCP cells assessed as reduction in HBV DNA incubated for day 1 followed by compound washout and fresh compound addition on following day and day 3, 6 and 10 measured on day 14 post infection by qPCR analysis; assay type: functional, organism-based
[6] = Cytotoxicity against human HepG2-hNTCP cells incubated for 3 days by XTT assay; assay type: cell-based; settings: time 3 day
[7] = Stability of compound in pooled human plasma assessed as half life at 5 uM measured for 120 to 240 mins by ECHO-MS analysis; assay type: ADME, cell-free; settings: time 120-240 min
[8] = Stability of compound in pooled human plasma assessed as compound remaining at 5 uM measured for 120 to 240 mins by ECHO-MS analysis; assay type: ADME, cell-free; settings: time 120-240 min, read-out: Stability
[9] = Stability of compound in pooled human hepatic microsomes assessed as compound remaining at 5 uM measured upto 30 mins in presence of NADPH by ECHO-MS analysis; assay type: ADME, Microsome; settings: pooled liver microsomes, read-out: Stability
[10] = target: T1, Lysosomal protective protein (Homo sapiens) (UniProt P10619); assay: Substrate activity at cathepsin A (unknown origin) at 30 uM after 30 mins
T1 sequence (whole entry): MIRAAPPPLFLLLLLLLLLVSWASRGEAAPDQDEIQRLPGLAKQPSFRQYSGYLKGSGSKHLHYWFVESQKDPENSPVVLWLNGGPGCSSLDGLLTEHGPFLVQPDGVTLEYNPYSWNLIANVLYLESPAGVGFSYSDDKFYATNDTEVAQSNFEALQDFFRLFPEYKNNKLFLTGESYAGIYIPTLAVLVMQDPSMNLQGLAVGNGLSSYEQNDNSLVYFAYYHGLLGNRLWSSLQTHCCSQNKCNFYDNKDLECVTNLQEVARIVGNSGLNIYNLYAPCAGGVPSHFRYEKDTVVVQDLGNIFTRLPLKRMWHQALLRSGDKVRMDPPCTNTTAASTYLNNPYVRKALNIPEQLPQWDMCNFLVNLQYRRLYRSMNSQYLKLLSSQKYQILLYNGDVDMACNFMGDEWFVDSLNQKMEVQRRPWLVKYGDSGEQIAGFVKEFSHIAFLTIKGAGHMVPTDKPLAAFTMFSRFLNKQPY

[11] = Drug uptake in human CCRF-CEM cells assessed as intracellular intact prodrug level at 50 uM after 45 mins by ECHO-MS analysis; assay type: ADME, cell-based; settings: 0.75 h
[12] = Drug uptake in human CCRF-CEM cells assessed as released tenofovir level at 50 uM after 45 mins by ECHO-MS analysis; assay type: ADME, cell-based; settings: 0.75 h

Row | Structure (SMILES) | selectivity ratio [1] | EC50 [2] [nM] | solubility at 24 h, 25 µM [3] [µM] | EC50 [4] [nM] | CC50 at 120 h [5] [nM] | EC50 (Hepatitis B virus) [nM] | CC50 at 72 h [6] [nM] | half-life at 5 µM [7] [h] | remaining at 5 µM [8] [%] | remaining at 0.5 h, 5 µM [9] [%] | Activity [10] [pmol/min/mg] | Drug uptake [11] [pmol] | Drug uptake [12] [pmol]
1 | CC(C)OC(=O)OCOP(=O)(CO[C@H](C)Cn1cnc2c(N)ncnc21)OCOC(=O)OC(C)C [TENOFOVIR DISOPROXIL FUMARATE] | 656 | 50 |  |  |  |  |  |  |  |  |  |  | 
2 | CC(C)OC(=O)[C@H](C)N[P@](=O)(CO[C@H](C)Cn1cnc2c(N)ncnc21)Oc1ccc(C[C@H](NC(=O)OCc2ccccc2)C(=O)OC2CCCC2)cc1.Cl |  |  | 210 |  |  |  |  |  |  |  |  |  | 
3 | CC(C)OC(=O)[C@H](C)N[P@](=O)(CO[C@H](C)Cn1cnc2c(N)ncnc21)Oc1ccc(C[C@H](NCCCc2ccccc2)C(=O)OC2CCCC2)cc1 | 21400 |  |  | 0.28 | 6000 | 19 | > 50000 |  |  |  |  |  | 
4 | CC(C)OC(=O)[C@H](C)N[P@@](=O)(CO[C@H](C)Cn1cnc2c(N)ncnc21)Oc1ccc(C[C@H](NC(=O)OCc2ccccc2)C(=O)OC2CCCC2)cc1 |  |  |  | 16 | 17000 |  |  | 4.62 | 56 | 0.01 | 35.9 | 0.22 | 20.25
5 | CC(C)OC(=O)[C@H](C)N[P@](=O)(CO[C@H](C)Cn1cnc2c(N)ncnc21)Oc1ccc(C[C@H](NCCCc2ccccc2)C(=O)CC2CCCC2)cc1 | 800000 |  |  | 0.06 | 48000 |  |  |  | 77 | 1 | 16.3 | 11.37 | 304.5
6 | C[C@H](Cn1cnc2c(N)ncnc21)OCP(=O)(O)O [TENOFOVIR ANHYDROUS] | 36 | 5000 |  |  |  |  |  |  |  |  |  |  | 
7 | CC(C)OC(=O)[C@H](C)N[P@](=O)(CO[C@H](C)Cn1cnc2c(N)ncnc21)Oc1ccccc1.CC(C)OC(=O)[C@H](C)N[P@](=O)(CO[C@H](C)Cn1cnc2c(N)ncnc21)Oc1ccccc1.O=C(O)/C=C/C(=O)O [TENOFOVIR ALAFENAMIDE FUMARATE] | 5470 | 5 | > 1000 | 6.4 | 35000 | 5.3 | > 50000 | 3.45 | 44 | 70 | 25.8 | 0.3 | 21.19
8 | CC(C)OC(=O)[C@H](C)N[P@@](=O)(CO[C@H](C)Cn1cnc2c(N)ncnc21)Oc1ccc(C[C@@H](NC(=O)OCc2ccccc2)C(=O)OC2CCCC2)cc1 | 45500 |  |  | 0.33 | 15000 |  |  |  |  |  |  |  | 
9 | COC(=O)[C@H](Cc1ccc(O[P@@](=O)(CO[C@H](C)Cn2cnc3c(N)ncnc32)N[C@@H](C)C(=O)OC(C)C)cc1)NC(C)=O |  |  |  | 720 | > 50000 | 3.2 | > 50000 |  |  |  |  |  | 
10 | CC(C)OC(=O)[C@H](C)N[P@](=O)(CO[C@H](C)Cn1cnc2c(N)ncnc21)Oc1ccc(C[C@H](NC(=O)OCc2ccccc2)C(=O)OC2CCCC2)cc1 |  |  |  |  |  |  |  |  |  |  | 33.6 |  | 
11 | CC(C)OC(=O)[C@H](C)N[P@](=O)(CO[C@H](C)Cn1cnc2c(N)ncnc21)Oc1ccc(C[C@H](NC(=O)OCc2ccccc2)C(=O)OC2CCCC2)cc1.O=C(O)/C=C/C(=O)O |  |  | 104 |  |  |  |  |  |  |  |  |  | 
12 | CCCCCCOC(=O)[C@H](Cc1ccc(OP(=O)(CO[C@H](C)Cn2cnc3c(N)ncnc32)N[C@@H](C)C(=O)OC(C)C)cc1)NC(=O)OCc1ccccc1 (some centres not stated) |  |  |  | 1.8 | 8400 | 1.4 | > 50000 |  |  |  |  |  | 
13 | CC(C)OC(=O)[C@H](C)N[P@@](=O)(CO[C@H](C)Cn1cnc2c(N)ncnc21)Oc1ccc(C[C@H](NC(=O)OCc2ccccc2)C(=O)CC2CCCC2)cc1 |  |  |  | 0.15 | 7600 | 3.4 | > 50000 |  |  |  | 30.3 | 248 | 78.88
14 | CC(C)OC(=O)[C@H](C)N[P@@](=O)(CO[C@H](C)Cn1cnc2c(N)ncnc21)Oc1ccc(C[C@H](NC(=O)CCc2ccccc2)C(=O)OC2CCCC2)cc1 |  |  |  | 0.36 | 11000 | 1.4 | > 50000 |  |  |  | 29.5 | 0.12 | 27.89
15 | CC(C)OC(=O)[C@H](C)N[P@](=O)(CO[C@H](C)Cn1cnc2c(N)ncnc21)Oc1ccc(C[C@H](NC(=O)OCc2ccccc2)C(=O)CC2CCCC2)cc1 | 1.53e+06 |  |  | 0.006 | 9200 | 2.8 | > 50000 |  | 88 | 0.04 | 39.7 | 102.36 | 148.09
16 | CC(C)OC(=O)[C@H](C)N[P@](=O)(CO[C@H](C)Cn1cnc2c(N)ncnc21)Oc1ccc(C[C@H](NC(=O)CCc2ccccc2)C(=O)OC2CCCC2)cc1 | 880000 |  |  | 0.01 | 8800 | 4.4 | > 50000 |  | 76 | 0.01 | 26 | 0.37 | 64.26
17 | CC(C)OC(=O)[C@H](C)N[P@](=O)(CO[C@H](C)Cn1cnc2c(N)ncnc21)Oc1ccc(C[C@H](NC(=O)OCc2ccccc2)C(=O)NC2CCCC2)cc1 | 2150 |  |  | 13 | 28000 |  |  |  |  |  |  |  | 
18 | CC(C)CCOC(=O)[C@H](Cc1ccc(OP(=O)(CO[C@H](C)Cn2cnc3c(N)ncnc32)N[C@@H](C)C(=O)OC(C)C)cc1)NC(=O)OCc1ccccc1 (some centres not stated) |  |  |  | 0.4 | 8400 | 0.2 | > 50000 |  |  |  |  |  | 
19 | COC(=O)[C@H](Cc1ccc(O[P@](=O)(CO[C@H](C)Cn2cnc3c(N)ncnc32)N[C@@H](C)C(=O)OC(C)C)cc1)NC(=O)C(F)(F)F |  |  |  | 540 | > 50000 | 1.6 | > 50000 |  |  |  |  |  | 
20 | CC(C)OC(=O)[C@H](C)N[P@](=O)(CO[C@H](C)Cn1cnc2c(N)ncnc21)Oc1ccc(C[C@H](NC(=O)OCc2ccccc2)C(=O)OC(C)C)cc1 | 16700 |  |  | 0.6 | 10000 |  |  |  |  |  |  |  | 
21 | CC(C)OC(=O)[C@H](C)N[P@@](=O)(CO[C@H](C)Cn1cnc2c(N)ncnc21)Oc1ccc(C[C@H](NCCCc2ccccc2)C(=O)OC2CCCC2)cc1 |  |  |  | 0.68 | 7600 | 4 | > 50000 |  |  |  |  |  | 
22 | CC(C)CCOC(=O)[C@H](Cc1ccc(O[P@@](=O)(CO[C@H](C)Cn2cnc3c(N)ncnc32)N[C@@H](C)C(=O)OC(C)C)cc1)NC(=O)OCc1ccccc1 | 14300 |  |  | 0.56 | 8000 |  |  |  |  |  |  |  | 

Source: ChEMBL document CHEMBL4840358, “Discovery of Modified Amidate (ProTide) Prodrugs of Tenofovir with Enhanced Antiviral Properties” (J Med Chem, 2021)
